The text below walks through data of BindingDB's records for doi:10.1016/s0960-894x(03)00356-1 (Abbott Laboratories, 2003).

This test addresses Histamine H3 receptor (Rattus norvegicus) (UniProt Q9QYN8). Kind of test: Compound was tested for its binding affinity towards rat cortical Histamine H3L receptor.

Chain of Histamine H3 receptor (Rattus norvegicus) (Q9QYN8 whole entry, looked up): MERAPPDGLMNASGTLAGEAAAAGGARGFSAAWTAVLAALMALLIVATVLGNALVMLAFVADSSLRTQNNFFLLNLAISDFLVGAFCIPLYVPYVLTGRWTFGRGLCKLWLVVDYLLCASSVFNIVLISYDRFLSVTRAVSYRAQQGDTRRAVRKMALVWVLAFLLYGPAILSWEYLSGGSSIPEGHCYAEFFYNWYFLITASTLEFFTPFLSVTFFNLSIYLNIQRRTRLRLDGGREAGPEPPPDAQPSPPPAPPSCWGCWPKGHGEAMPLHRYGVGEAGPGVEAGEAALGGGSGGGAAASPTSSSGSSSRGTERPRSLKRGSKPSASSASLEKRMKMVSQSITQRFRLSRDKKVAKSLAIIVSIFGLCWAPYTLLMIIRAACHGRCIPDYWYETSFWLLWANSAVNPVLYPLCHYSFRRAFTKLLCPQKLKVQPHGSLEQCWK

As to `CN(C)CCCNc1c2c(nc3c1CCCC3)CCCCC2`, the affinity corresponds to a Ki of 158 nM.
